Measured values taken from PMC8198049, “Synthesis and Evaluation of the Tetracyclic Ring-System of Isocryptolepine and Regioisomers for Antimalarial, Antiproliferative and Antimicrobial Activities” (Molecules, 2021).
Converted amounts (≈) assume the structure as drawn.

Key:
[1] = system: HCT116 (human colon cancer); assay: Antiproliferative assay (resazurin); assay type: cell-based; conditions: Homo sapiens, HCT-116; 72 h compound incubation; mean ± sem, two separate experiments
Procedure: (§1) Compounds tested in the antiproliferative assays were tested in 11 dilution points (0.02 µM–40 µM or 0.04 µM–80 µM). […] HCT116 cells were maintained in McCoy’s 5A media (Life Technologies, CA, USA), MDA-MB-231 cells were cultured in DMEM media (Life Technologies) with 10 mM HEPES (Life Technologies), whilst PC-3 cells were maintained in RPMI media (Life Technologies). All media were supplemented with 10% heat-inactivated fetal bovine serum (Australian source; Corning, CA, USA) and all cells were incubated at 37 °C in a humidified incubator with 5% CO2. Cells were seeded in 384-well plates (Greiner Bio-One, NC, USA) using the respective complete media. After 24 h cell seeding, compounds were added and antiproliferative activity was determined using the resazurin assay after 72 h compound incubation. Briefly, cells were incubated with 60 µM resazurin (Cayman, MI, USA) for 6 h at 37 °C and fluorescence signals were measured using a microplate reader (EnSight, PerkinElmer, Waltham, MA, USA).

[2] = system: PC-3 (human prostate cancer); assay: Antiproliferative assay (resazurin); assay type: cell-based; conditions: Homo sapiens; 72 h compound incubation; mean ± sem, two separate experiments
Procedure: as §1

[3] = system: MDA-MB-231 (human breast adenocarcinoma); assay: Antiproliferative assay (resazurin); assay type: cell-based; conditions: Homo sapiens, MDA-MB-231; 72 h compound incubation; mean ± sem, two separate experiments
Procedure: as §1

[4] = Antiplasmodial imaging assay; assay type: cell-based, Plasmodium falciparum; conditions: human (HEK293) and Plasmodium falciparum (3D7), HEK293 cells versus Plasmodium falciparum 3D7 culture; HEK293 vs 3D7; read-out: SI (selectivity index = cytotoxicity in HEK293/activity in 3D7)
Procedure: (§2) Compounds tested in the antiproliferative assays were tested in 11 dilution points (0.02 µM–40 µM or 0.04 µM–80 µM).
(§3) Antiplasmodial activity was determined as previously described by Duffy and Avery. […] After incubation, plates were stained with 4’,6-diamidino-2-phenylindole (DAPI) in a permeabilization buffer for 5 h at rt in the dark. Plates were imaged on the Opera confocal microplate image reader (PerkinElmer).

[5] = system: Plasmodium falciparum 3D7 strain; assay: Antiplasmodial imaging assay; assay type: cell-based; conditions: P. falciparum 3D7, 72 h, mean ± standard deviation, two separate experiments; for IC50: Plasmodium falciparum
Procedure: as §2, §3

[6] = Cytotoxicity assay (resazurin-based viability); assay type: cell-based; conditions: human, HEK293 cells, mean ± standard deviation, two separate experiments
Procedure: Fluorescence was measured using an EnSight plate reader (PerkinElmer, Waltham, MA, USA).

[7] = system: Streptococcus agalactiae (ATCC 12386); assay: Bacterial growth inhibition assay; assay type: cell-based; parameters: MIC (Gentamycin, unit not given): unit not given beside the values; conditions: for MIC: ATCC12386
Procedure: (§4) The prepared samples were tested for in vitro antimicrobial activity against E. faecalis, E. coli, P. aeruginosa, S. aureus, Streptococcus agalactiae and S. epidermis using gentamycin as a reference compound.
(§5) To determine and quantify antimicrobial activity, a bacteria growth inhibition assay in liquid media was executed. Compounds 2–3, 4, 8–10, 13–14, 16, 18, and 20 were tested against Staphylococcus aureus (ATCC 25923), Escherichia coli (ATCC 259233), Enterococcus faecialis (ATCC 29122), Pseudomonas aeruginosa (ATCC 27853) and Streptococcus agalactiae (ATCC 12386); all strains from LGC Standards (Teddington, UK). S. aureus, E. coli, and P. aeruginosa were grown in Muller Hinton broth (275730, Becton, Franklin Lakes, NJ, USA). E. faecalis and S. agalactiae were cultured in brain hearth infusion broth (53286, Sigma, St Louise, MO, USA). Fresh bacterial colonies were transferred in the respective medium and incubated at 37 °C overnight. The bacterial cultures were diluted to a culture density representing the log phase and µL/well were pipetted into a 96-well microtiter plate (734–2097, NunclonTM, Thermo Scientific, Waltham, MA, USA). The final cell density was 1500–15.000 colony forming units/well. The compound was diluted in 2% (v/v) DMSO in ddH2O, providing a final assay concentration of 50% of the prepared sample, since 50 µL of sample in DMSO/water were added to 50 µL bacterial culture. After adding the samples to the plates, they were incubated overnight at 37 °C and the growth was determined by measuring the optical density at λ = 600 nm (OD600) with a 1420 Multilabel Counter VICTOR3TM (Perkin Elmer, Waltham, MA, USA). A water sample was used as a reference control, growth medium without bacteria was used as a negative control and dilution series of gentamycin (A2712, Merck, Darmstadt, DE) from 32 to 0.01 µg/mL was used as positive control and visually inspected for bacterial growth. The positive control was used as a system suitability test and the results of the antimicrobial assay were only considered valid when positive control was passed. The final concentration of DMSO in the assays was ≤2% (v/v) and was known to have no effect in the tested bacteria. The data was processed using GraphPad Prism 8.

E. coli (ATCC 259233) = assay: Bacterial growth inhibition assay; assay type: cell-based, Escherichia coli; parameters: MIC (Gentamycin, unit not given): unit not given beside the values; conditions: for MIC: Escherichia coli, ATCC259233
Procedure: as §4
as §5, with “The final concentration of DMSO in the assays was ≤2% (v/v) and was known to have no effect in the tested bacteria. The data was processed using GraphPad Prism 8.” left out

S. aureus (ATCC 25923) = assay: Bacterial growth inhibition assay; assay type: cell-based, Staphylococcus aureus; parameters: MIC (Gentamycin, unit not given): unit not given beside the values; conditions: for MIC: Staphylococcus aureus, ATCC25923
Procedure: as §4, §5

[8] = system: E. faecalis, E. coli, P. aeruginosa, S. aureus, Streptococcus agalactiae and S. epidermis; assay: Antimicrobial and biofilm inhibition assays, whole panel of tested strains; assay type: cell-based; conditions: five bacterial strains and biofilm formation; tested up to 100 µM
Procedure: as §4
(§6) To determine and quantify antimicrobial activity, a bacteria growth inhibition assay in liquid media was executed. Compounds 2–3, 4, 8–10, 13–14, 16, 18, and 20 were tested against Staphylococcus aureus (ATCC 25923), Escherichia coli (ATCC 259233), Enterococcus faecialis (ATCC 29122), Pseudomonas aeruginosa (ATCC 27853) and Streptococcus agalactiae (ATCC 12386); all strains from LGC Standards (Teddington, UK). S. aureus, E. coli, and P. aeruginosa were grown in Muller Hinton broth (275730, Becton, Franklin Lakes, NJ, USA). E. faecalis and S. agalactiae were cultured in brain hearth infusion broth (53286, Sigma, St Louise, MO, USA). Fresh bacterial colonies were transferred in the respective medium and incubated at 37 °C overnight. The bacterial cultures were diluted to a culture density representing the log phase and µL/well were pipetted into a 96-well microtiter plate (734–2097, NunclonTM, Thermo Scientific, Waltham, MA, USA). […] After adding the samples to the plates, they were incubated overnight at 37 °C and the growth was determined by measuring the optical density at λ = 600 nm (OD600) with a 1420 Multilabel Counter VICTOR3TM (Perkin Elmer, Waltham, MA, USA). […]

[9] = system: S. epidermis (ATCC 35984); assay: Biofilm formation inhibition assay; assay type: cell-based, Staphylococcus epidermidis; conditions: inhibition of biofilm formation
Procedure: as §4
For testing the inhibition of biofilm formation, the biofilm-producing Staphylococcus epidermidis (ATCC 35984) was grown in Tryptic Soy Broth (TSB, 105459, Merck, Kenilworth, NJ, USA) overnight at 37 °C. The overnight culture was diluted in fresh medium with 1% glucose (D9434, Sigma) before being transferred to a 96-well microtiter plate; 50 µL/well were incubated overnight with 50 µL of the test compound dissolved in 2% (v/v) DMSO aq. added in duplicates. The bacterial culture was removed from the plate and the plate was washed with tap water. The biofilm was fixed at 65 °C for 1 h before 70 µL 0.1% crystal violet (115940, Millipore, Burlington, MA, USA) was added to the wells for 10 min of incubation and 70 µL of 70% ethanol was then added to each well and the plate incubated on a shaker for 5–10 min. Biofilm formation inhibition was assessed by the presence of violet color and measured at […] absorbance using a 1420 Multilabel Counter VICTOR3TM; 50 µL of a non-biofilm forming Staphylococcus haemolyticus (clinical isolate 8-7A, University Hospital of North Norway Tromsø, Norway) mixed in 50 µL autoclaved Milli-Q water was used as a control; 50 µL S. epidermidis mixed in 50 µL autoclaved Milli-Q water was used as the control for biofilm formation; and 50 µL TSB with 50 µL autoclaved Milli-Q water was used as a medium blank control.

E. faecalis (ATCC 29122) = assay: Bacterial growth inhibition assay; assay type: cell-based, Enterococcus faecialis; parameters: MIC (Gentamycin, unit not given): unit not given beside the values
Procedure: as §4, §5

[10] = system: P. aeruginosa (ATCC 27853); assay: Bacterial growth inhibition assay; assay type: cell-based, Pseudomonas aeruginosa; parameters: unit not given beside the values; conditions: reference compound
Procedure: as §4, §6

COc1cnc2cccc3c2c1Nc1ccccc1-3 [Compound 4b, 6-methoxy-7H-pyrido[4,3,2-gh]phenanthridine]
IC50 [1]: 166 ± 16 nM | IC50 [2]: 24 ± 3 nM | IC50 [3]: 1000 ± 297 nM | selectivity ratio at 72 h [4]: 4.2 | IC50 [5]: 866 ± 2 nM | IC50 at 72 h [6]: 3657 ± 2 nM | MIC [7]: 75 µM (≈ 18.6 µg/mL) | MIC (E. coli (ATCC 259233)): 50 µM (≈ 12.4 µg/mL) | MIC (S. aureus (ATCC 25923)): 75 µM (≈ 18.6 µg/mL)

COC1=CN(C)c2cccc3c2c1nc1ccccc13 [Compound 8b, 6-Methoxy-4-methyl-4H-pyrido[4,3,2-gh]phenanthridine]
IC50 [1]: 871 ± 172 nM | IC50 [2]: 4540 ± 361 nM | IC50 [3]: 814 ± 162 nM | selectivity ratio at 72 h [4]: 3.3 | IC50 [5]: 1550 ± 27 nM | IC50 at 72 h [6]: 5057 ± 45 nM | activity against any of the tested strains [8]: complete loss of activity

c1ccc2c(c1)[nH]c1ccc3ncccc3c12 [Compound 9a, 7H-Pyrido[2,3-c]carbazole]
IC50 [1]: 20000 nM | IC50 [2]: 17800 nM | IC50 [3]: 21500 nM | melting point: 204 to 205 °C | selectivity ratio at 72 h [4]: > 11.7 | 3D7 IC50 [5]: little to no activity | IC50 [5]: 6825 ± 61 nM | IC50 at 72 h [6]: > 80000 nM | MIC [7]: 100 µM (≈ 21.8 µg/mL) | MBIC [9]: 100 µM

Cn1cc2c3ccccc3nc-2c2ccccc21 [Isocryptolepine (3a), isocryptolepine]
IC50 [1]: 667 ± 45 nM | IC50 [2]: 1821 ± 7 nM | IC50 [3]: 695 ± 130 nM | selectivity ratio at 72 h [4]: 1.7 | IC50 [5]: 1210 ± 84 nM | IC50 at 72 h [6]: 2070 ± 70 nM | MIC [7]: 100 µM (≈ 23.2 µg/mL) | MIC (E. faecalis (ATCC 29122); Enterococcus faecalis, ATCC29122): 100 µM (≈ 23.2 µg/mL) | MIC (E. coli (ATCC 259233)): 100 µM (≈ 23.2 µg/mL) | MBIC [9]: 100 µM | MIC (S. aureus (ATCC 25923)): 100 µM (≈ 23.2 µg/mL)

gentamycin [reference compound]
MIC (Gentamycin, unit not given) ([7]; reference compound): 4 | MIC (Gentamycin, unit not given) (E. faecalis (ATCC 29122); reference compound): 8 | MIC (Gentamycin, unit not given) (E. coli (ATCC 259233); reference compound): 0.13 | MIC (Gentamycin, unit not given) (S. aureus (ATCC 25923); reference compound): 0.06 | MIC (Gentamycin, unit not given) [10]: 0.25
